In patent publication US12264139B2, “Aryl sulfonamides as BLT1 antagonists” (Merck Sharp & Dohme LLC, priority 2015, dated 2025) one finds EC50 data, which are given here for 28 compounds.

The target in the experiment is T1, human BLT1 receptor (Homo sapiens, UniProt Q15722).
T1 construct: expressed in transfected cells; host or cells: HEK293
T1 sequence (Q15722 whole entry): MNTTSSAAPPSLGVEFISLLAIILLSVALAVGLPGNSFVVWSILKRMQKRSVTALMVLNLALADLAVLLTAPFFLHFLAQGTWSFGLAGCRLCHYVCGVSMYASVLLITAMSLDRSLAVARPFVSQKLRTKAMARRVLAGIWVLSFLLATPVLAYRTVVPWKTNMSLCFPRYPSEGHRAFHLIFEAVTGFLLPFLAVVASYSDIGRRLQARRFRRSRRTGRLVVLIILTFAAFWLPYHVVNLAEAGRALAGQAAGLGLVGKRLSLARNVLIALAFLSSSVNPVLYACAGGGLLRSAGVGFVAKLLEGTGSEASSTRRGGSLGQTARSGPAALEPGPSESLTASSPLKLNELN
Briefly: BLT-1 cAMP Assay. It is filed as cell-based. Conditions: HEK293 cells recombinantly expressing human BLT1; antagonist activity vs forskolin 4 μM and LTB4 2 nM; cAMP (CisBio kit).
Regarding `O=S(=O)(Nc1ccccc1-c1ccc2c(c1)OCC(Cc1cc3ccccc3s1)C2O)C(F)(F)F` (racemic) [Example 34, N-(2-((3,4-rac-trans)-3-(benzo[b]thiophen-2-ylmethyl)-4-hydroxychroman-7-yl)phenyl)-1,1,1-trifluoromethanesulfonamide], the EC50 was 44 nM.

As to `O=S(=O)(Nc1ccccc1-c1ccc2c(c1)OC[C@@H](Cc1ccncc1)[C@@H]2O)C(F)(F)F` (single isomer, unassigned) [Example 25, 1,1,1-trifluoro-N-{2-[(3R,4S or 3S,4R)-4-hydroxy-3-(pyridin-4-ylmethyl)-3,4-dihydro-2H-chromen-7-yl]phenyl}methanesulfonamide], the concentration giving a half-maximal response (EC50) came out at 412 nM.

In the case of `O=S(=O)(Nc1ccccc1-c1ccc2c(c1)OC[C@H](Cc1cscn1)[C@H]2O)C(F)(F)F` (single isomer, unassigned) [Example 50, 1,1,1-trifluoro-N-{2-[(3R,4S or 3S,4R)-4-hydroxy-3-(1,3-thiazol-4-ylmethyl)-3,4-dihydro-2H-chromen-7-yl]phenyl}-methanesulfonamide], the EC50 worked out at 29 nM.

For the compound `Cc1nc(C[C@@H]2COc3cc(-c4ccccc4NS(=O)(=O)C(F)(F)F)ccc3[C@H]2O)cs1` (racemic) [Example 16, 1,1,1-Trifluoro-N-(2-{(rac-trans)-4-hydroxy-3-[(2-methyl-1,3-thiazol-4-yl)methyl]-3,4-dihydro-2H-chromen-7-yl}phenyl)methanesulfonamide], the EC50 came to 826 nM.

`O=S(=O)(Nc1ccccc1-c1ccc2c(c1)OC[C@@H](Cc1cncs1)[C@@H]2O)C(F)(F)F` (racemic) [Example 9, 1,1,1-Trifluoro-N-(2-((3,4-rac-trans)-4-hydroxy-3-(thiazol-5-ylmethyl)chroman-7-yl)phenyl)methanesulfonamide]: the EC50 amounted to 269 nM.

As for `Cc1ccc(CC2COc3cc(-c4ccccc4NS(=O)(=O)C(F)(F)F)ccc3C2O)nc1` (racemic) [Example 11, 1,1,1-Trifluoro-N-(2-((3,4-rac-trans)-4-hydroxy-3-((5-methylpyridin-2-yl)methyl)chroman-7-yl)phenyl)methanesulfonamide], the EC50 was 105 nM.

For `O=S(=O)(Nc1ccccc1-c1ccc2c(c1)OC[C@H](Cc1csc(-c3ccccc3)n1)[C@H]2O)C(F)(F)F` (racemic) [Example 24, 1,1,1-Trifluoro-N-(2-((rac-trans)-4-hydroxy-3-((2-phenylthiazol-4-yl)methyl)chroman-7-yl)phenyl)methanesulfonamide], the EC50 stood at 329 nM.

In the case of `O=S(=O)(Nc1ccccc1-c1ccc2c(c1)OC[C@H](Cc1csc(-c3ccccc3)n1)[C@H]2O)C(F)(F)F` (single isomer, unassigned) [Example 65, 1,1,1-Trifluoro-N-(2-((3S,4R or 3R,4S)-4-hydroxy-3-((2-phenylthiazol-4-yl)-methyl)chroman-7-yl)-phenyl)methanesulfonamide], the EC50 came to 47 nM.

`O=S(=O)(CC(F)(F)F)Nc1ncccc1-c1ccc2c(c1)OC[C@@H](Cc1ccccn1)[C@@H]2O` (single isomer, unassigned) [Example 77, 2,2,2-Trifluoro-N-(3-((3R,4S or 3S,4R)-4-hydroxy-3-(pyridin-2-ylmethyl)chroman-7-yl)pyridin-2-yl)ethanesulfonamide]: the concentration for a half-maximal effect (EC50) turned out to be 118 nM.

`CCn1ccc(C[C@H]2COc3cc(-c4ccccc4NS(=O)(=O)C(F)(F)F)ccc3[C@@H]2O)n1` (single isomer, unassigned) [Example 46, N-(2-((3S,4R or 3R,4S)-3-((1-ethyl-1H-pyrazol-3-yl)methyl)-4-hydroxychroman-7-yl)phenyl)-1,1,1-trifluoromethanesulfonamide]: the EC50 worked out at 157 nM.

As to `O=S(=O)(Nc1ccccc1-c1ccc2c(c1)OC[C@@H](Cc1csc(-c3ccccc3)n1)[C@@H]2O)C(F)(F)F` (single isomer, unassigned) [Example 64, 1,1,1-Trifluoro-N-(2-((3R,4S or 3S,4R)-4-hydroxy-3-((2-phenylthiazol-4-yl)-methyl)chroman-7-yl)-phenyl)methanesulfonamide], the EC50 came to 971 nM.

In the case of `O=S(=O)(Nc1ccccc1-c1ccc2c(c1)OC[C@H](Cc1ccccc1)[C@H]2O)C(F)(F)F` (single isomer, unassigned) [Example 59, N-{2-[(3S,4R or 3R,4S)-3-benzyl-4-hydroxy-3,4-dihydro-2H-chromen-7-yl]phenyl}-1,1,1-trifluoromethanesulfonamide], the EC50 was determined as 15 nM.

On to `O=S(=O)(Nc1ccccc1-c1ccc2c(c1)OC[C@H](Cc1ccc(F)cn1)[C@H]2O)C(F)(F)F` (racemic) [Example 29, 1,1,1-Trifluoro-N-(2-((rac-trans)-3-((5-fluoropyridin-2-yl)methyl)-4-hydroxychroman-7-yl)phenyl)methanesulfonamide], for which the EC50 worked out at 464 nM.

`O=S(=O)(Nc1ccccc1-c1ccc2c(c1)OC[C@@H](Cc1cnc(-c3ccccc3)s1)[C@@H]2O)C(F)(F)F` (racemic) [Example 41, 1,1,1-Trifluoro-N-(2-((rac-trans)-4-hydroxy-3-((2-phenylthiazol-5-yl)methyl)chroman-7-yl)phenyl)methanesulfonamide]: the EC50 amounted to 225 nM.

With `O=S(=O)(Nc1ccccc1-c1ccc2c(c1)OC[C@H](Cc1cnccn1)[C@H]2O)C(F)(F)F` (racemic) [Example 27, 1,1,1-Trifluoro-N-{2-[(rac-trans)-4-hydroxy-3-(pyrazin-2-ylmethyl)-3,4-dihydro-2H-chromen-7-yl]phenyl}methanesulfonamide], the EC50 was determined as 209 nM.

Consider `O=S(=O)(Nc1ccccc1-c1ccc2c(c1)OCC(Cc1ccsc1)C2O)C(F)(F)F` (racemic) [Example 8, 1,1,1-Trifluoro-N-(2-((3,4-rac-trans)-4-hydroxy-3-(thiophen-3-ylmethyl)chroman-7-yl)phenyl)methanesulfonamide], for which the concentration for a half-maximal effect (EC50) is 21 nM.

In the case of `O=S(=O)(Nc1ccccc1-c1ccc2c(c1)OC[C@H](Cc1ccc(-c3ccccc3)cn1)[C@H]2O)C(F)(F)F` (single isomer, unassigned) [Example 39, (2-((3S,4R or 3R,4S)-4-hydroxy-3-((5-phenylpyridin-2-yl)methyl)chroman-7-yl)phenyl)((trifluoromethyl)sulfonyl)amide], the half-maximal effective concentration (EC50) amounted to 1 nM.

As to `CC(c1ccccn1)C1COc2cc(-c3cc(F)ccc3NS(=O)(=O)C(F)(F)F)ccc2C1O` (single isomer, unassigned) [Example 103, 1,1,1-trifluoro-N-(4-fluoro-2-(4-hydroxy-3-(1-(pyridin-2-yl)ethyl)chroman-7-yl)phenyl) methanesulfonamide], the EC50 was determined as 1310 nM.

On to `CS(=O)(=O)Nc1ccccc1-c1ccc2c(c1)OC[C@H](Cc1ccccn1)[C@H]2O` (single isomer, unassigned) [Example 72, N-{2-[(3S,4R or 3R,4S)-4-hydroxy-3-(pyridin-2-ylmethyl)-3,4-dihydro-2H-chromen-7-yl]phenyl}methanesulfonamide], for which the EC50 amounted to 2980 nM.

Regarding `O=S(=O)(CC(F)(F)F)Nc1ncc(F)cc1-c1ccc2c(c1)OC[C@@H](Cc1ccccn1)[C@@H]2O` (single isomer, unassigned) [Example 85], the EC50 worked out at 63 nM.

Regarding `O=S(=O)(Nc1ccccc1-c1ccc2c(c1)OC[C@@H](Cc1cscn1)[C@@H]2O)C(F)(F)F` (single isomer, unassigned) [Example 51, 1,1,1-trifluoro-N-{2-[(3S,4R or 3R,4S)-4-hydroxy-3-(1,3-thiazol-4-ylmethyl)-3,4-dihydro-2H-chromen-7-yl]phenyl}-methanesulfonamide], the EC50 worked out at 808 nM.

Take `O=S(=O)(Nc1ccccc1-c1ccc2c(c1)OC[C@@H](Cc1cncs1)[C@H]2O)C(F)(F)F` (racemic) [Example 10, 1,1,1-Trifluoro-N-(2-((3,4-rac-cis)-4-hydroxy-3-(thiazol-5-ylmethyl)chroman-7-yl)phenyl)methanesulfonamide]: the EC50 is 4540 nM.

As to `CCn1ccc(C[C@@H]2COc3cc(-c4ccccc4NS(=O)(=O)C(F)(F)F)ccc3[C@H]2O)n1` (single isomer, unassigned) [Example 47, N-(2-((3R,4S or 3S,4R)-3-((1-ethyl-1H-pyrazol-3-yl)methyl)-4-hydroxychroman-7-yl)phenyl)-1,1,1-trifluoromethanesulfonamide], the half-maximal effective concentration (EC50) stood at 1200 nM.

Regarding `O=S(=O)(Nc1ccccc1-c1ccc2c(c1)OCC(Cc1ccccc1)C2O)C(F)(F)F` (racemic) [Example 2, N-(2-((3,4-Rac-trans)-3-benzyl-4-hydroxychroman-7-yl)phenyl)-1,1,1-trifluoromethanesulfonamide], the EC50 came to 31 nM.

Regarding `CS(=O)(=O)Nc1ccccc1-c1ccc2c(c1)OCC(Cc1ccccn1)C2O` (racemic) [Example 30, N-(2-((3,4-Rac-trans)-4-hydroxy-3-(pyridin-2-ylmethyl)chroman-7-yl)phenyl)methanesulfonamide], the EC50 was determined as 414 nM.

In the case of `O=S(=O)(Nc1ncc(F)cc1-c1ccc2c(c1)OC[C@@H](Cc1ccccn1)[C@@H]2O)C(F)(F)F` (single isomer, unassigned) [Example 84, 1,1,1-Trifluoro-N-(5-fluoro-3-((3,4-trans)-4-hydroxy-3-(pyridin-2-ylmethyl)chroman-7-yl)pyridin-2-yl)methanesulfonamide], the EC50 was 1610 nM.

As for `Cc1cccc(C[C@H]2COc3cc(-c4ccccc4NS(=O)(=O)C(F)(F)F)ccc3[C@@H]2O)n1` (racemic) [Example 20, 1,1,1-Trifluoro-N-(2-{(rac-trans)-4-hydroxy-3-[(6-methylpyridin-2-yl)methyl]-3,4-dihydro-2H-chromen-7-yl}phenyl)methanesulfonamide], the EC50 was determined as 215 nM.

Turning to `O=S(=O)(Nc1ccccc1-c1ccc2c(c1)OC[C@@H](Cc1ncccc1F)[C@@H]2O)C(F)(F)F` (single isomer, unassigned) [Example 69, 1,1,1-Trifluoro-N-(2-{(3,4-trans)-3-[(3-fluoropyridin-2-yl)methyl]-4-hydroxy-3,4-dihydro-2H-chromen-7-yl}phenyl)methanesulfonamide], the EC50 was 30 nM.

The term EC50 denotes the concentration at which the effect is half-maximal.
